Experimental data from patent US11912663B2, “Multi-targeted tyrosine kinase inhibitors and their pharmaceutical uses” (Shanghai AB PharmaTech Ltd., priority 2021, dated 2024).

test system: lung cancer cell line (A549); experiment: tumor cell proliferation inhibition (CTG), lung cancer cell line; assay type: cell-based; details: Homo sapiens, 72 hours

Compound | IC50 [nM]
N#CCCOc1cc2nccc(Oc3c(F)cc(NC(=O)NC4CC4)c(Cl)c3F)c2cc1C(N)=O [IIIb-65] | < 2500
COc1cc2nccc(Oc3c(F)cc(NC(=O)NC4CC4)c(Cl)c3F)c2cc1C(=O)NCC(F)F [IIIb-08] | < 2500
NC(=O)c1cc2c(Oc3c(F)cc(NC(=O)NC4CC4)c(Cl)c3F)ccnc2cc1OCC1(N)CC1 [IIIb-61] | < 2500

biological target: FGFR2 (Homo sapiens (Human), UniProt P21802); experiment: kinase inhibition, Mobility-Shift Assay; assay type: biochemical; details: 1.9 μM ATP
Sequence (P21802 22-821): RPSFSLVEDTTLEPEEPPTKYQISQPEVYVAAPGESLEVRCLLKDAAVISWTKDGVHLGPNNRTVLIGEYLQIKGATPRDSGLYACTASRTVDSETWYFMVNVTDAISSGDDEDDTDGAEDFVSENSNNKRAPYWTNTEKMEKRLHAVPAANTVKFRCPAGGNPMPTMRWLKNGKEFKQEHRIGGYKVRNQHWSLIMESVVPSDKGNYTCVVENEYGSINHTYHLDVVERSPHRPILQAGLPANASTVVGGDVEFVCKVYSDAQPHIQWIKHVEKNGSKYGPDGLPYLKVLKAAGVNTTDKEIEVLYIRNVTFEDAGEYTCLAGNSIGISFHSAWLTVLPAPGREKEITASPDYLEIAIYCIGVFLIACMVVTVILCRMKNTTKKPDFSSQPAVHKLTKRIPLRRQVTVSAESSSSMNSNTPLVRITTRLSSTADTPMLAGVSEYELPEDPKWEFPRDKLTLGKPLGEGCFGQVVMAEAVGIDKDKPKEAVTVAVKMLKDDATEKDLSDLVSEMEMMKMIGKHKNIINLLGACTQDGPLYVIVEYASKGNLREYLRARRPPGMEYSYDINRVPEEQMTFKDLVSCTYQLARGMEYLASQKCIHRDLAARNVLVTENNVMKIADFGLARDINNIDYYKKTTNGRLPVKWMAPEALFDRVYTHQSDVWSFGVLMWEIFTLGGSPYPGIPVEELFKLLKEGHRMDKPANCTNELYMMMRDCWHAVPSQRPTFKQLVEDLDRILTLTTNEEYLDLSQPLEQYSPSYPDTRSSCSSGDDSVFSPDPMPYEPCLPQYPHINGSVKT

Compound | IC50 [nM]
N#CCCOc1cc2nccc(Oc3c(F)cc(NC(=O)NC4CC4)c(Cl)c3F)c2cc1C(N)=O [IIIb-65] | < 50
COc1cc2nccc(Oc3c(F)cc(NC(=O)NC4CC4)c(Cl)c3F)c2cc1C(=O)NCC(F)F [IIIb-08] | < 50
NC(=O)c1cc2c(Oc3c(F)cc(NC(=O)NC4CC4)c(Cl)c3F)ccnc2cc1OCC1(N)CC1 [IIIb-61] | < 50

biological target: VEGFR1 (FLT1) (Homo sapiens (Human), UniProt P17948); experiment: kinase inhibition, Mobility-Shift Assay; assay type: biochemical; details: 278 μM ATP
Sequence (P17948 27-1338): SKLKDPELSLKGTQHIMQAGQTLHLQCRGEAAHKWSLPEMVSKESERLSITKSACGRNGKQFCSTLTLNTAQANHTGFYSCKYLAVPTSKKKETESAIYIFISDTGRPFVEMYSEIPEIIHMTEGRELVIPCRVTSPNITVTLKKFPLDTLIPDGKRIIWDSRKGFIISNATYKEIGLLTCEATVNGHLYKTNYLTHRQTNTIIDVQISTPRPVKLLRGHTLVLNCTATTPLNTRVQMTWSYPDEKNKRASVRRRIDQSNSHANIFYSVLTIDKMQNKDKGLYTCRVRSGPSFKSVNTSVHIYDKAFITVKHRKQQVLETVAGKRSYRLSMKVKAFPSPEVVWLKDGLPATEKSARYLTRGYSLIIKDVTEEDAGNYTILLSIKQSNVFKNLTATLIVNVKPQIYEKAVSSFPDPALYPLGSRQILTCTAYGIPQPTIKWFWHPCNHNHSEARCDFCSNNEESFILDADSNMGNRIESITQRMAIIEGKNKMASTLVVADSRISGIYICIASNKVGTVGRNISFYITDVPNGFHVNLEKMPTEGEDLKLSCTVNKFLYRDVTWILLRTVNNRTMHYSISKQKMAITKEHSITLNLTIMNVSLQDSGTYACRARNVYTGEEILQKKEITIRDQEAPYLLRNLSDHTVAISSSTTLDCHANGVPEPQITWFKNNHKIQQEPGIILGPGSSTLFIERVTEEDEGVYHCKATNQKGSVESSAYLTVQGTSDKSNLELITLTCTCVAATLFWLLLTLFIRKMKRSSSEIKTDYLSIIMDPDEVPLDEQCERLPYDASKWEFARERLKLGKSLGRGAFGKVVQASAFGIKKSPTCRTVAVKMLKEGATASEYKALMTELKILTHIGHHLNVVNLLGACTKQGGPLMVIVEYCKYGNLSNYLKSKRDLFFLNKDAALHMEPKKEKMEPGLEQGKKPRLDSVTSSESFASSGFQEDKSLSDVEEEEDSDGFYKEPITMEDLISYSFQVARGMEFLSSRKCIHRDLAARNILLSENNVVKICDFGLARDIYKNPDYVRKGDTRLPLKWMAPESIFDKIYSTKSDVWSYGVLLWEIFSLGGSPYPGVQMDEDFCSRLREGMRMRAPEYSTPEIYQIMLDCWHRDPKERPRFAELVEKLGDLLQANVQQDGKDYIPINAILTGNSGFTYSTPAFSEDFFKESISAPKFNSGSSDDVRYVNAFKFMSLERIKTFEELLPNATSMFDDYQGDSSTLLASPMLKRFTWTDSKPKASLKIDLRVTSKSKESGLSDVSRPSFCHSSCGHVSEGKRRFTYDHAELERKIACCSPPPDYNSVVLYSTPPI

Compound | IC50 [nM]
N#CCCOc1cc2nccc(Oc3c(F)cc(NC(=O)NC4CC4)c(Cl)c3F)c2cc1C(N)=O [IIIb-65] | < 5
COc1cc2nccc(Oc3c(F)cc(NC(=O)NC4CC4)c(Cl)c3F)c2cc1C(=O)NCC(F)F [IIIb-08] | < 5
NC(=O)c1cc2c(Oc3c(F)cc(NC(=O)NC4CC4)c(Cl)c3F)ccnc2cc1OCC1(N)CC1 [IIIb-61] | < 5

test system: cervical cancer cell lines (Hela); experiment: tumor cell proliferation inhibition (CTG), cervical cancer cell line; assay type: cell-based; details: Homo sapiens, 72 hours

Compound | IC50 [nM]
N#CCCOc1cc2nccc(Oc3c(F)cc(NC(=O)NC4CC4)c(Cl)c3F)c2cc1C(N)=O [IIIb-65] | < 5000
COc1cc2nccc(Oc3c(F)cc(NC(=O)NC4CC4)c(Cl)c3F)c2cc1C(=O)NCC(F)F [IIIb-08] | < 5000
NC(=O)c1cc2c(Oc3c(F)cc(NC(=O)NC4CC4)c(Cl)c3F)ccnc2cc1OCC1(N)CC1 [IIIb-61] | < 5000

test system: gastric cancer cell line (SNU16); experiment: tumor cell proliferation inhibition (CTG), gastric cancer cell line; assay type: cell-based; details: Homo sapiens, SNU-16, 72 hours, read-out: SUN16 IC50

Compound | IC50 [nM]
N#CCCOc1cc2nccc(Oc3c(F)cc(NC(=O)NC4CC4)c(Cl)c3F)c2cc1C(N)=O [IIIb-65] | < 5000
COc1cc2nccc(Oc3c(F)cc(NC(=O)NC4CC4)c(Cl)c3F)c2cc1C(=O)NCC(F)F [IIIb-08] | < 5000
NC(=O)c1cc2c(Oc3c(F)cc(NC(=O)NC4CC4)c(Cl)c3F)ccnc2cc1OCC1(N)CC1 [IIIb-61] | < 5000

biological target: VEGFR2 (KDR) (Homo sapiens (Human), UniProt P35968); experiment: kinase inhibition, Mobility-Shift Assay; assay type: biochemical; details: VEGFR2, 92 μM ATP
Sequence (P35968 20-1356): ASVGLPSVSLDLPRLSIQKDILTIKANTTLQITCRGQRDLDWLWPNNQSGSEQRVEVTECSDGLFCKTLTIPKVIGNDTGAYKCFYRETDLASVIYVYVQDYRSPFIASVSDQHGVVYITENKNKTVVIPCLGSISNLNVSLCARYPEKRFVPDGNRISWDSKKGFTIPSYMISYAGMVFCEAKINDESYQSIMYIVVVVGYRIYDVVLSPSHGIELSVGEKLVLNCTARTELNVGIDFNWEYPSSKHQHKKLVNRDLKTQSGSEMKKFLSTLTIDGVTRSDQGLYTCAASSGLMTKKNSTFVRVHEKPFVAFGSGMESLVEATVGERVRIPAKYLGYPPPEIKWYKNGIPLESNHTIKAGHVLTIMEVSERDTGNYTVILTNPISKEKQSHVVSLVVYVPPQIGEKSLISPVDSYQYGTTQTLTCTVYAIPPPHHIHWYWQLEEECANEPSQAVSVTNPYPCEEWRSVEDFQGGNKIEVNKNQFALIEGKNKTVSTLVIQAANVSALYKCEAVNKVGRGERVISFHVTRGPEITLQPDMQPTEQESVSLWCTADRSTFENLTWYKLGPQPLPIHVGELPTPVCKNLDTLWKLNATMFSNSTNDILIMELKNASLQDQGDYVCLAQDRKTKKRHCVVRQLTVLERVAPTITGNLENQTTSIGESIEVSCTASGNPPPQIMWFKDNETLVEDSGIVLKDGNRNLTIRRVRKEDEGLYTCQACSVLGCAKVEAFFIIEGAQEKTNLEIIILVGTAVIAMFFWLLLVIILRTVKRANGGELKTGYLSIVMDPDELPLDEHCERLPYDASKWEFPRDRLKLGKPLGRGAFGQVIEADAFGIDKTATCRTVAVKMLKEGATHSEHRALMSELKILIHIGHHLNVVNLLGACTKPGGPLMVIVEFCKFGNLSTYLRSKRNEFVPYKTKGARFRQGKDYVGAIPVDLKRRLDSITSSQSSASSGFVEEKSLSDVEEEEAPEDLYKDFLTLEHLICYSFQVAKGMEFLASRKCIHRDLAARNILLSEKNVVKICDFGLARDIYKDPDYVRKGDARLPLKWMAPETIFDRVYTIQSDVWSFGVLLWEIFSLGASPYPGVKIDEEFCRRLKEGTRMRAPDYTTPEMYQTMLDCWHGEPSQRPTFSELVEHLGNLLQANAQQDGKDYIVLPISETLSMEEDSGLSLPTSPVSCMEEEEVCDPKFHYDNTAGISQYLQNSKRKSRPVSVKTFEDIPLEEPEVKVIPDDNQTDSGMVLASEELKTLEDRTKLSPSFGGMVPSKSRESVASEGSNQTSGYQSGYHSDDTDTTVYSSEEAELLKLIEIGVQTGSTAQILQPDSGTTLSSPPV

Compound | IC50 [nM]
N#CCCOc1cc2nccc(Oc3c(F)cc(NC(=O)NC4CC4)c(Cl)c3F)c2cc1C(N)=O [IIIb-65] | < 5
COc1cc2nccc(Oc3c(F)cc(NC(=O)NC4CC4)c(Cl)c3F)c2cc1C(=O)NCC(F)F [IIIb-08] | < 5
NC(=O)c1cc2c(Oc3c(F)cc(NC(=O)NC4CC4)c(Cl)c3F)ccnc2cc1OCC1(N)CC1 [IIIb-61] | < 5

test system: prostatic cancer (PC-3); experiment: tumor cell proliferation inhibition (CTG), PC-3; assay type: cell-based; details: 72 hours

Compound | IC50 [nM]
N#CCCOc1cc2nccc(Oc3c(F)cc(NC(=O)NC4CC4)c(Cl)c3F)c2cc1C(N)=O [IIIb-65] | 5000 to 10000
COc1cc2nccc(Oc3c(F)cc(NC(=O)NC4CC4)c(Cl)c3F)c2cc1C(=O)NCC(F)F [IIIb-08] | 5000 to 10000
NC(=O)c1cc2c(Oc3c(F)cc(NC(=O)NC4CC4)c(Cl)c3F)ccnc2cc1OCC1(N)CC1 [IIIb-61] | 5000 to 10000

test system: not listed separately; experiment: MTD toxicity test in rats; assay type: in vivo; details: rat, in vivo, 150 mg/kg

Compound | MTD toxicity test, clinical outcome
N#CCCOc1cc2nccc(Oc3c(F)cc(NC(=O)NC4CC4)c(Cl)c3F)c2cc1C(N)=O [IIIb-65] | no abnormalities such as death
COc1cc2nccc(Oc3c(F)cc(NC(=O)NC4CC4)c(Cl)c3F)c2cc1C(=O)NCC(F)F [IIIb-08] | no abnormalities such as death
NC(=O)c1cc2c(Oc3c(F)cc(NC(=O)NC4CC4)c(Cl)c3F)ccnc2cc1OCC1(N)CC1 [IIIb-61] | no abnormalities such as death

same assay, conditions: rats, 150 mg/kg, QD, 14 days; heart, liver, lungs, kidneys, stomach, intestines and other organs

Compound | autopsy results of organs
N#CCCOc1cc2nccc(Oc3c(F)cc(NC(=O)NC4CC4)c(Cl)c3F)c2cc1C(N)=O [IIIb-65] | did not reveal any abnormal changes
COc1cc2nccc(Oc3c(F)cc(NC(=O)NC4CC4)c(Cl)c3F)c2cc1C(=O)NCC(F)F [IIIb-08] | did not reveal any abnormal changes
NC(=O)c1cc2c(Oc3c(F)cc(NC(=O)NC4CC4)c(Cl)c3F)ccnc2cc1OCC1(N)CC1 [IIIb-61] | did not reveal any abnormal changes

biological target: hERG potassium channels (Homo sapiens (Human), UniProt Q12809); experiment: in vitro inhibitory effect of hERG, whole-cell patch clamp; assay type: cell-based; details: whole-cell recording, room temperature

Compound | IC50 [nM]
N#CCCOc1cc2nccc(Oc3c(F)cc(NC(=O)NC4CC4)c(Cl)c3F)c2cc1C(N)=O [IIIb-65] | > 30000
COc1cc2nccc(Oc3c(F)cc(NC(=O)NC4CC4)c(Cl)c3F)c2cc1C(=O)NCC(F)F [IIIb-08] | > 30000
NC(=O)c1cc2c(Oc3c(F)cc(NC(=O)NC4CC4)c(Cl)c3F)ccnc2cc1OCC1(N)CC1 [IIIb-61] | > 30000

test system: kidney cancer cell line (Caki-1); experiment: tumor cell proliferation inhibition (CTG), kidney cancer cell line; assay type: cell-based; details: Homo sapiens, 72 hours, read-out: Caki-1 (renal cancer) IC50

Compound | IC50 [nM]
N#CCCOc1cc2nccc(Oc3c(F)cc(NC(=O)NC4CC4)c(Cl)c3F)c2cc1C(N)=O [IIIb-65] | < 2500
COc1cc2nccc(Oc3c(F)cc(NC(=O)NC4CC4)c(Cl)c3F)c2cc1C(=O)NCC(F)F [IIIb-08] | < 2500
NC(=O)c1cc2c(Oc3c(F)cc(NC(=O)NC4CC4)c(Cl)c3F)ccnc2cc1OCC1(N)CC1 [IIIb-61] | < 2500

test system: hepatocellular carcinoma cell line (Hep3B 2.1-7); experiment: tumor cell proliferation inhibition (CTG), hepatocellular carcinoma cell line; assay type: cell-based; details: Homo sapiens, 72 hours

Compound | IC50 [nM]
N#CCCOc1cc2nccc(Oc3c(F)cc(NC(=O)NC4CC4)c(Cl)c3F)c2cc1C(N)=O [IIIb-65] | < 2500
COc1cc2nccc(Oc3c(F)cc(NC(=O)NC4CC4)c(Cl)c3F)c2cc1C(=O)NCC(F)F [IIIb-08] | < 2500
NC(=O)c1cc2c(Oc3c(F)cc(NC(=O)NC4CC4)c(Cl)c3F)ccnc2cc1OCC1(N)CC1 [IIIb-61] | < 2500

test system: leukemia cell line (K562); experiment: tumor cell proliferation inhibition (CTG), leukemia cell line; assay type: cell-based; details: Homo sapiens, 72 hours

Compound | IC50 [nM]
N#CCCOc1cc2nccc(Oc3c(F)cc(NC(=O)NC4CC4)c(Cl)c3F)c2cc1C(N)=O [IIIb-65] | < 5000
COc1cc2nccc(Oc3c(F)cc(NC(=O)NC4CC4)c(Cl)c3F)c2cc1C(=O)NCC(F)F [IIIb-08] | < 5000
NC(=O)c1cc2c(Oc3c(F)cc(NC(=O)NC4CC4)c(Cl)c3F)ccnc2cc1OCC1(N)CC1 [IIIb-61] | < 5000

test system: pancreatic cancer cell line (BXPC3); experiment: tumor cell proliferation inhibition (CTG), pancreatic cancer cell line; assay type: cell-based; details: Homo sapiens, BXPC-3, 72 hours

Compound | IC50 [nM]
N#CCCOc1cc2nccc(Oc3c(F)cc(NC(=O)NC4CC4)c(Cl)c3F)c2cc1C(N)=O [IIIb-65] | < 5000
COc1cc2nccc(Oc3c(F)cc(NC(=O)NC4CC4)c(Cl)c3F)c2cc1C(=O)NCC(F)F [IIIb-08] | < 5000
NC(=O)c1cc2c(Oc3c(F)cc(NC(=O)NC4CC4)c(Cl)c3F)ccnc2cc1OCC1(N)CC1 [IIIb-61] | < 5000

test system: BXPC3, SNU16, Hep3B 2.1-7 subcutaneous tumors; experiment: tumor suppression in nude mice with subcutaneously transplanted tumors; assay type: in vivo; details: BXPC3, SNU16, Hep3B 2.1-7 transplants, within 3-4 weeks
Source text: These preferred compounds (e.g., IIIb-08, IIIb-09, IIIb-45, IIIb-50, IIIb-55, IIIb-56, IIIb-57, IIIb-58, IIIb-60, IIIb-61, IIIb-65) are currently being used to […] in nude mice subcutaneously transplanted with pancreatic cancer cell line (BXPC3), gastric cancer cell line (SNU16), liver cancer cell line (Hep3B 2.1-7) and other tumor suppressive effects have been observed in vivo, the tumor suppression rate of subcutaneous tumors in nude mice could reach 80-110% within 3-4 weeks. […] Therefore, the preferred compounds “IIIb-08, IIIb-09, IIIb-45, IIIb-50, IIIb-55, IIIb-56, IIIb-57, IIIb-58, IIIb-60, IIIb-61, IIIb-65” designed and synthesized by the present invention not only have better inhibitory activity, but also have better safety and drug-forming properties, which are valuable for further preclinical studies such as pharmacotoxicology and clinical trials.

Compound | tumor suppression rate of subcutaneous tumors
N#CCCOc1cc2nccc(Oc3c(F)cc(NC(=O)NC4CC4)c(Cl)c3F)c2cc1C(N)=O [IIIb-65] | 80-110%
COc1cc2nccc(Oc3c(F)cc(NC(=O)NC4CC4)c(Cl)c3F)c2cc1C(=O)NCC(F)F [IIIb-08] | 80-110%
NC(=O)c1cc2c(Oc3c(F)cc(NC(=O)NC4CC4)c(Cl)c3F)ccnc2cc1OCC1(N)CC1 [IIIb-61] | 80-110%

biological target: RET (Homo sapiens (Human), UniProt P07949); experiment: kinase inhibition, Mobility-Shift Assay; assay type: biochemical; details: 23 μM ATP
Sequence (P07949 29-1114): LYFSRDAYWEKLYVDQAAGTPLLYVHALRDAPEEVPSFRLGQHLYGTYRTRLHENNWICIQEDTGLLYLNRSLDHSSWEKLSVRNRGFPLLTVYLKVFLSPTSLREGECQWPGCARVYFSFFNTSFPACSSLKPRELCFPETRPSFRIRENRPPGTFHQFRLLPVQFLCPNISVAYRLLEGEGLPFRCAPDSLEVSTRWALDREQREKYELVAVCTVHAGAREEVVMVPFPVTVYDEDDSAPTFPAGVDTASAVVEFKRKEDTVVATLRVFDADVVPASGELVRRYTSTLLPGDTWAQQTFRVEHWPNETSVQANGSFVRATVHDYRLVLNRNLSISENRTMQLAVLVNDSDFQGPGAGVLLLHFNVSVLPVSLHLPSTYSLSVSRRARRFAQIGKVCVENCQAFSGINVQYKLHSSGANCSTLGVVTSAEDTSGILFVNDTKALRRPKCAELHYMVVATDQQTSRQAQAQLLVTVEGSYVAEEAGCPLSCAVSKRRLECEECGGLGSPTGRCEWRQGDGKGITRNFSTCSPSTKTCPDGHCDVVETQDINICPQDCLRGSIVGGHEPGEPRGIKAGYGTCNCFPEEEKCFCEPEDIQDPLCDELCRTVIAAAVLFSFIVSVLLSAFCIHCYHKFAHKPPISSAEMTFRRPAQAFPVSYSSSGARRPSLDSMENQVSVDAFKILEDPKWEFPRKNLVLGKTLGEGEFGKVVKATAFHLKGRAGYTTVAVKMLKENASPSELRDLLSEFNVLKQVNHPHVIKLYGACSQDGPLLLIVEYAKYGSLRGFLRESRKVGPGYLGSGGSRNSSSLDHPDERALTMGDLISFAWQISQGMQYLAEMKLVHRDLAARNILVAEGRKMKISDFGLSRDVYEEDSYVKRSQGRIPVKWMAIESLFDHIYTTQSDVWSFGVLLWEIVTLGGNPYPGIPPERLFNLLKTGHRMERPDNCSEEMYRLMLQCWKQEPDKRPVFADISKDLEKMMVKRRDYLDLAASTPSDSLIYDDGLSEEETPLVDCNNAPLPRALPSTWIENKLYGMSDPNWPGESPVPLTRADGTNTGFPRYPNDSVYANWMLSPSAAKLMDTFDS

Compound | IC50 [nM]
N#CCCOc1cc2nccc(Oc3c(F)cc(NC(=O)NC4CC4)c(Cl)c3F)c2cc1C(N)=O [IIIb-65] | < 5
COc1cc2nccc(Oc3c(F)cc(NC(=O)NC4CC4)c(Cl)c3F)c2cc1C(=O)NCC(F)F [IIIb-08] | < 5
NC(=O)c1cc2c(Oc3c(F)cc(NC(=O)NC4CC4)c(Cl)c3F)ccnc2cc1OCC1(N)CC1 [IIIb-61] | < 5

biological target: VEGFR3 (FLT4) (Homo sapiens (Human), UniProt P35916); experiment: kinase inhibition, Mobility-Shift Assay; assay type: biochemical; details: 84 μM ATP

Compound | IC50 [nM]
N#CCCOc1cc2nccc(Oc3c(F)cc(NC(=O)NC4CC4)c(Cl)c3F)c2cc1C(N)=O [IIIb-65] | < 5
COc1cc2nccc(Oc3c(F)cc(NC(=O)NC4CC4)c(Cl)c3F)c2cc1C(=O)NCC(F)F [IIIb-08] | < 5
NC(=O)c1cc2c(Oc3c(F)cc(NC(=O)NC4CC4)c(Cl)c3F)ccnc2cc1OCC1(N)CC1 [IIIb-61] | < 5
